Patent US20260061037A1, “BACILLUS SPECIES STRAIN EXPRESSING SUPEROXIDE DISMUTASE, BACILLUS SPECIES STRAIN SPORE AND/OR SUPEROXIDE DISMUTASE, AND USE THEREOF FOR PREVENTING OR TREATING OF FIBROTIC DISEASE” (HLB GENEX, INC., priority 2022, published 2026)

Experiments:
[1] = system: nonalcoholic steatohepatitis (NASH) STAM™ animal model; test: Sirius red staining of liver (fibrosis area) in NASH STAM model; format: in vivo, C57BL/6J mice; conditions: PO, QD; GF423 1×10^7 CFU, GF103 10 U, telmisartan 10 mg/kg; vs disease control group
Method: (§1) NASH was induced in all groups except the normal group of 8 mice as follows: On the second day after birth, the male mice were injected subcutaneously once with 200 μg streptozotocin (STZ, purchased from Sigma-Aldrich) solution. After the mice reached 4 weeks of age, a solid high-fat diet (HFD, 57 kcal % fat, purchased from CLEA Japan, Inc., Cat #HFD32) was placed on a metal lid on top of the cage so that the mice access it ad libitum, thereby inducing NASH
(§2) The GF427-administered groups were administered once a day at five dose levels: 0.05×10^7 (lowest dose), 0.1×10^7 (low dose), 0.5×10^7 (middle dose), 1×10^7 (high dose), and 5×10^7 CFU (highest dose) per mouse. The GF423-administered group was administered once a day at a dose of 1×10^7 CFU per mouse. […] The animals were monitored daily for viability, clinical signs (lethargy, convulsion, respiratory distress), and behavior to observe whether there are any significant clinical signs of toxicity, coma, and death before and after administration of the test substance. […]
For quantitative analysis of fibrosis area, bright field images of the Sirius red-stained section were captured around the central vein using a digital camera (DFC295, purchased from Leica) at 200-fold magnification, and the positive areas in 5 fields/section were measured using ImageJ software (National Institute of Health, USA). […]

[2] = system: nonalcoholic steatohepatitis (NASH) STAM™ animal model; test: Plasma ALT level in NASH STAM model; format: in vivo, C57BL/6J mice; conditions: PO, QD; GF423 1×10^7 CFU, GF103 10 U, telmisartan 10 mg/kg; vs disease control group
Method: as §1
(§3) The GF427-administered groups were administered once a day at five dose levels: 0.05×10^7 (lowest dose), 0.1×10^7 (low dose), 0.5×10^7 (middle dose), 1×10^7 (high dose), and 5×10^7 CFU (highest dose) per mouse. The GF423-administered group was administered once a day at a dose of 1×10^7 CFU per mouse. GF103 was administered once a day at a dose of 10 U per mouse. Telmisartan was administered once a day at a dose of 10 mg/kg. […] The animals were monitored daily for viability, clinical signs (lethargy, convulsion, respiratory distress), and behavior to observe whether there are any significant clinical signs of toxicity, coma, and death before and after administration of the test substance. […]
Plasma ALT level was measured using FUJI DRI-CHEM 7000 (purchased from Fujifilm Corporation). […]

[3] = system: nonalcoholic steatohepatitis (NASH) STAM™ animal model; format: in vivo
Method: as §1
The GF427-administered groups were administered once a day at five dose levels: 0.05×10^7 (lowest dose), 0.1×10^7 (low dose), 0.5×10^7 (middle dose), 1×10^7 (high dose), and 5×10^7 CFU (highest dose) per mouse. The GF423-administered group was administered once a day at a dose of 1×10^7 CFU per mouse. GF103 was administered once a day at a dose of 10 U per mouse. Telmisartan was administered once a day at a dose of 10 mg/kg. GF427, GF423, and GF103 were administered orally in the form of a vehicle at a dose of 100 μL, and telmisartan was administered orally in the form of being supplemented with reverse osmosis water (RO water) at a dose of 10 mL/kg. The normal and disease control groups were not subjected to any treatment before sacrifice, and were sacrificed at 13 weeks of age by exsanguination via direct cardiac puncture under isoflurane (purchased from Pfizer Inc.) anesthesia. The animals were monitored daily for viability, clinical signs (lethargy, convulsion, respiratory distress), and behavior to observe whether there are any significant clinical signs of toxicity, coma, and death before and after administration of the test substance. […] All animal care and experiments were conducted in accordance with laws and regulations related to animal welfare and management.
At sacrifice of the mice, the whole liver was collected and washed with cold saline. Photographs of the individual whole liver (parietal side and visceral side) were taken. Then, the liver weight was measured and the liver-to-body weight ratio was calculated. […]

[4] = system: nonalcoholic steatohepatitis (NASH) STAM™ animal model; test: H&E staining of liver and NAFLD activity score in NASH STAM model; format: in vivo, C57BL/6J mice; conditions: PO, QD; GF423 1×10^7 CFU, GF103 10 U, telmisartan 10 mg/kg; vs disease control group
Method: as §1, §3
The paraffin block of liver tissue prepared in Example 7.3 was sectioned using a rotary microtome (purchased from Leica Microsystems). […] The tissue slides were subjected to H&E staining and evaluated by the investigator. […]

[5] = system: nonalcoholic steatohepatitis (NASH) STAM™ animal model; format: in vivo; conditions: PO, QD, GF423 1×10^7 CFU, telmisartan 10 mg/kg
Method: C57BL/6J mice (14-day-pregnant female, 6-week-old male) (purchased from SLC, Japan) were maintained in a SPF facility with controlled temperature (23±3° C.), humidity (50±20%), lighting (12-hour artificial light/dark cycle; light cycle from 08:00 to 20:00), and air exchange.
NASH was induced in all groups except the normal group of 8 mice as follows: On the second day after birth, the male mice were injected subcutaneously once with 200 μg streptozotocin (STZ, purchased from Sigma-Aldrich) solution. […]
The 10-week-old mice with induced NASH were randomized to 9 groups, each containing 8 mice, based on their body weight on the day before the start of treatment. […] The NASH model mice were stratified by the body weight, and the standard deviation (SD) was calculated to minimize the difference in mean body weight between the groups. […]
as §2, with “dose)” for “dose) per mouse. The GF423-administered group was administered once a day at a dose of 1×10^7 CFU”

[6] = PO, QD, weeks 10 to 13, GF423 1×10^7 CFU, GF103 10 U, telmisartan 10 mg/kg, vs disease control group

CCCc1nc2c(C)cc(-c3nc4ccccc4n3C)cc2n1Cc1ccc(-c2ccccc2C(=O)O)cc1 [telmisartan, Telmisartan]
fibrosis area (Sirius red-positive area) [1]: tended to decrease
plasma ALT level [2]: tended to show a decrease in plasma ALT level
mean liver weight [3, 6]: significant decrease in mean liver weight
mean liver-to-body weight ratio [3, 6]: tended to show a decrease in mean liver-to-body weight ratio
daily mean body weight on the day of sacrifice ([3]; mouse, in vivo, po): significant decrease in daily mean body weight on the day of sacrifice
NAFLD activity score (NAS) [4]: significant decrease in NAS
mean body weight during the treatment period ([5]; weeks 10 to 13, GF427 0.05-5×10^7 CFU, GF103 10 U, vs disease control group): significantly lower than that of the disease control group from day 17 to day 21
mice found dead or euthanized before day 21 ([5]; 8 mice per group): two of the eight mice were euthanized
